Results taken from the supplement of paper PMC9938120.

Legend:
Assay in all cases: drug sensitivity score (DSS3, normalised partial AUC of % inhibition dose-response) (DSS (score)); higher = more sensitive (stronger inhibition of viability); extreme values may be limits of the assay
[1] = tested on: FMOC25_2 (patient-derived low-grade serous ovarian cancer cells); conditions: 72 h; library: FO5A; assay format: 2D, 384-well, CellTiter-Glo
Method in brief: (§1)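 On 384-well flat clear-bottom plates carrying compounds at five concentrations across a 10,000-fold range, patient-derived ovarian cancer cells below passage 10 were incubated for 72 h at 37 °C with 5% CO2. CellTiter-Glo readout of viability was processed in Breeze. A higher drug sensitivity score, defined as the partial area under the percent-inhibition dose-response curve divided by the log of the upper asymptote, means greater sensitivity.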

[2] = tested on: FMOC17 (patient-derived low-grade serous ovarian cancer cells); conditions: 72 h; library: FO5A; assay format: 2D, 384-well, CellTiter-Glo
Method in brief: as §1

[3] = tested on: FMOC24 (patient-derived high-grade serous ovarian cancer cells); conditions: 72 h; library: FO5A; assay format: 2D, 384-well, CellTiter-Glo
Method in brief: as §1

[4] = tested on: FMOC03 (patient-derived mucinous ovarian cancer cells); conditions: 72 h; library: FO5A; assay format: 2D, 384-well, CellTiter-Glo
Method in brief: as §1

[5] = tested on: FMOC27 (patient-derived low-grade serous ovarian cancer cells); conditions: 72 h; library: FO5A; assay format: 2D, 384-well, CellTiter-Glo
Method in brief: as §1

[6] = tested on: FMOC25_1 (patient-derived low-grade serous ovarian cancer cells); conditions: 72 h; library: FO4B; assay format: 2D, 384-well, CellTiter-Glo
Method in brief: as §1

[7] = tested on: FMOC28 (patient-derived low-grade serous ovarian cancer cells); conditions: 72 h; library: FO5A; assay format: 2D, 384-well, CellTiter-Glo
Method in brief: as §1

[8] = tested on: FMOC02_3 (patient-derived low-grade serous ovarian cancer cells); conditions: 72 h; library: FO5A; assay format: 2D, 384-well, CellTiter-Glo
Method in brief: as §1

[9] = tested on: FMOC04 (patient-derived high-grade serous ovarian cancer cells); conditions: 72 h; library: FO5A; assay format: 2D, 384-well, CellTiter-Glo
Method in brief: as §1

[10] = tested on: FMOC02_2 (patient-derived low-grade serous ovarian cancer cells); conditions: 72 h; library: FO5A; assay format: 2D, 384-well, CellTiter-Glo
Method in brief: as §1

[11] = tested on: FMOC06 (patient-derived mucinous ovarian cancer cells); conditions: 72 h; library: FO5A; assay format: 2D, 384-well, CellTiter-Glo
Method in brief: as §1

[12] = tested on: FMOC14 (patient-derived high-grade serous ovarian cancer cells); conditions: 72 h; library: FO5A; assay format: 2D, 384-well, CellTiter-Glo
Method in brief: as §1

[13] = tested on: FMOC22 (patient-derived mucinous ovarian cancer cells); conditions: 72 h; library: FO5A; assay format: 2D, 384-well, CellTiter-Glo
Method in brief: as §1

[14] = tested on: FMOC09 (patient-derived high-grade serous ovarian cancer cells); conditions: 72 h; library: FO5A; assay format: 2D, 384-well, CellTiter-Glo
Method in brief: as §1

[15] = tested on: FMOC11 (patient-derived high-grade serous ovarian cancer cells); conditions: 72 h; library: FO5A; assay format: 2D, 384-well, CellTiter-Glo
Method in brief: as §1

[16] = tested on: FMOC02_1 (patient-derived low-grade serous ovarian cancer cells); conditions: 72 h; library: FO5A; assay format: 2D, 384-well, CellTiter-Glo
Method in brief: as §1

NC(=O)c1cccc(-c2cccc(OC(=O)NC3CCCCC3)c2)c1 [URB597] gave a drug sensitivity score [1] of 0, a drug sensitivity score [2] of 0 and a drug sensitivity score [3] of 0. For the same compound, the drug sensitivity score [4] was 0, the drug sensitivity score [5] was 0 and the drug sensitivity score [6] was 0. It also gave a drug sensitivity score [7] of 0, a drug sensitivity score [8] of 0.2 and a drug sensitivity score [9] of 0. For the same compound, the drug sensitivity score [10] was 0, the drug sensitivity score [11] was 0 and the drug sensitivity score [12] was 0. The drug sensitivity score [13] was 0, the drug sensitivity score [14] was 0 and the drug sensitivity score [15] was 0. For the same compound, the drug sensitivity score [16] was 0.

CS(=O)(=O)c1ccc(-c2cnc(N)c(C(=O)Nc3ccccc3)n2)cc1 [VE-821] gave a drug sensitivity score [1] of 2.2, a drug sensitivity score [2] of 0 and a drug sensitivity score [3] of 3.65. For the same compound, the drug sensitivity score [4] was 0, the drug sensitivity score [5] was 1.3 and the drug sensitivity score [6] was 0.6. The drug sensitivity score [7] was 0, the drug sensitivity score [8] was 0.2 and the drug sensitivity score [9] was 0. The drug sensitivity score [10] was 0.8, the drug sensitivity score [11] was 0 and the drug sensitivity score [12] was 1.9. The drug sensitivity score [13] was 0, the drug sensitivity score [14] was 0 and the drug sensitivity score [15] was 0. The drug sensitivity score [16] was 3.3.

O=C(O)CC1CC(c2ccccc2)=NO1 (stereo unspecified) [VGX-1027] showed a drug sensitivity score [1] of 0, a drug sensitivity score [2] of 0 and a drug sensitivity score [3] of 0. The drug sensitivity score [4] was 0, the drug sensitivity score [5] was 0 and the drug sensitivity score [6] was 0. The drug sensitivity score [7] was 0, the drug sensitivity score [8] was 0 and the drug sensitivity score [9] was 0. For the same compound, the drug sensitivity score [10] was 0, the drug sensitivity score [11] was 0 and the drug sensitivity score [12] was 0. It also gave a drug sensitivity score [13] of 0, a drug sensitivity score [14] of 0 and a drug sensitivity score [15] of 0. For the same compound, the drug sensitivity score [16] was 0.

Work on CCCC(CCC)C(=O)O [Valproic acid] yielded a drug sensitivity score [1] of 0, a drug sensitivity score [2] of 0 and a drug sensitivity score [3] of 0. The drug sensitivity score [4] was 0, the drug sensitivity score [5] was 0 and the drug sensitivity score [6] was 0. It also gave a drug sensitivity score [7] of 0.1, a drug sensitivity score [8] of 0 and a drug sensitivity score [9] of 0. It also gave a drug sensitivity score [10] of 0, a drug sensitivity score [11] of 0 and a drug sensitivity score [12] of 0. For the same compound, the drug sensitivity score [13] was 0, the drug sensitivity score [14] was 0 and the drug sensitivity score [15] was 0. The drug sensitivity score [16] was 0.

COc1cc2/c(=N/c3ccc(Br)cc3F)nc[nH]c2cc1OCC1CCN(C)CC1 [Vandetanib] gave a drug sensitivity score [1] of 4.1, a drug sensitivity score [2] of 6.2 and a drug sensitivity score [3] of 1.7. The drug sensitivity score [4] was 2.7, the drug sensitivity score [5] was 4.8 and the drug sensitivity score [6] was 1.4. For the same compound, the drug sensitivity score [7] was 2.1, the drug sensitivity score [8] was 5.1 and the drug sensitivity score [9] was 0.55. For the same compound, the drug sensitivity score [10] was 6.3, the drug sensitivity score [11] was 0.7 and the drug sensitivity score [12] was 0.1. The drug sensitivity score [13] was 0, the drug sensitivity score [14] was 3.1 and the drug sensitivity score [15] was 3.1. It also gave a drug sensitivity score [16] of 5.6.

CCc1c(C(=O)C(N)=O)c2c(OCC(=O)O)cccc2n1Cc1ccccc1 [Varespladib] gave a drug sensitivity score [1] of 0, a drug sensitivity score [2] of 0 and a drug sensitivity score [3] of 0.1. For the same compound, the drug sensitivity score [4] was 0, the drug sensitivity score [5] was 0 and the drug sensitivity score [6] was 0. For the same compound, the drug sensitivity score [7] was 0, the drug sensitivity score [8] was 0 and the drug sensitivity score [9] was 0. The drug sensitivity score [10] was 0, the drug sensitivity score [11] was 0 and the drug sensitivity score [12] was 0. For the same compound, the drug sensitivity score [13] was 0, the drug sensitivity score [14] was 0 and the drug sensitivity score [15] was 0. The drug sensitivity score [16] was 0.

In the case of Clc1ccc(Nc2nnc(Cc3ccncc3)c3ccccc23)cc1 [Vatalanib], the drug sensitivity score [1] was 0.7, the drug sensitivity score [2] was 0 and the drug sensitivity score [3] was 2.8. For the same compound, the drug sensitivity score [4] was 0.2, the drug sensitivity score [5] was 0 and the drug sensitivity score [6] was 0. For the same compound, the drug sensitivity score [7] was 3, the drug sensitivity score [8] was 0 and the drug sensitivity score [9] was 0. It also gave a drug sensitivity score [10] of 0.9, a drug sensitivity score [11] of 0 and a drug sensitivity score [12] of 0. It also gave a drug sensitivity score [13] of 0, a drug sensitivity score [14] of 0 and a drug sensitivity score [15] of 0. The drug sensitivity score [16] was 0.2.

C[C@]1(c2nc3c(C(N)=O)cccc3[nH]2)CCCN1 [Veliparib] gave a drug sensitivity score [1] of 1.6, a drug sensitivity score [2] of 0 and a drug sensitivity score [3] of 1.3. It also gave a drug sensitivity score [4] of 0, a drug sensitivity score [5] of 1.4 and a drug sensitivity score [6] of 0.1. It also gave a drug sensitivity score [7] of 0, a drug sensitivity score [8] of 3.2 and a drug sensitivity score [9] of 0. The drug sensitivity score [10] was 1.6, the drug sensitivity score [11] was 0 and the drug sensitivity score [12] was 0. For the same compound, the drug sensitivity score [13] was 0, the drug sensitivity score [14] was 0 and the drug sensitivity score [15] was 0. For the same compound, the drug sensitivity score [16] was 0.4.

With CCCS(=O)(=O)Nc1ccc(F)c(C(=O)c2c[nH]c3ncc(-c4ccc(Cl)cc4)cc23)c1F [Vemurafenib] the drug sensitivity score [1] was 1.6, the drug sensitivity score [2] was 1 and the drug sensitivity score [3] was 1.65. It also gave a drug sensitivity score [4] of 3, a drug sensitivity score [5] of 0 and a drug sensitivity score [6] of 1.7. It also gave a drug sensitivity score [7] of 2.6, a drug sensitivity score [8] of 1.8 and a drug sensitivity score [9] of 0. It also gave a drug sensitivity score [10] of 1.6, a drug sensitivity score [11] of 0.3 and a drug sensitivity score [12] of 1.3. The drug sensitivity score [13] was 2.5, the drug sensitivity score [14] was 0 and the drug sensitivity score [15] was 1.6. For the same compound, the drug sensitivity score [16] was 3.3.

With CC1(C)CCC(CN2CCN(c3ccc(C(=O)NS(=O)(=O)c4ccc(NCC5CCOCC5)c([N+](=O)[O-])c4)c(Oc4cnc5[nH]ccc5c4)c3)CC2)=C(c2ccc(Cl)cc2)C1 [Venetoclax] the drug sensitivity score [1] was 0, the drug sensitivity score [2] was 0 and the drug sensitivity score [3] was 1.8. The drug sensitivity score [4] was 0, the drug sensitivity score [5] was 0.3 and the drug sensitivity score [6] was 0. It also gave a drug sensitivity score [7] of 0, a drug sensitivity score [8] of 0 and a drug sensitivity score [9] of 0. It also gave a drug sensitivity score [10] of 0, a drug sensitivity score [11] of 0 and a drug sensitivity score [12] of 0. It also gave a drug sensitivity score [13] of 0, a drug sensitivity score [14] of 0 and a drug sensitivity score [15] of 0. It also gave a drug sensitivity score [16] of 0.

In the case of CS(=O)(=O)c1ccc(C(=O)Nc2ccc(Cl)c(-c3ccccn3)c2)c(Cl)c1 [Vismodegib], the drug sensitivity score [1] was 0, the drug sensitivity score [2] was 0 and the drug sensitivity score [3] was 1.95. It also gave a drug sensitivity score [4] of 0.6, a drug sensitivity score [5] of 0.8 and a drug sensitivity score [6] of 0. For the same compound, the drug sensitivity score [7] was 0, the drug sensitivity score [8] was 0 and the drug sensitivity score [9] was 0. The drug sensitivity score [10] was 0.4, the drug sensitivity score [11] was 0.3 and the drug sensitivity score [12] was 0. For the same compound, the drug sensitivity score [13] was 0, the drug sensitivity score [14] was 0 and the drug sensitivity score [15] was 0. It also gave a drug sensitivity score [16] of 0.
